Experiments:
PC-3 = assay: Cytotoxicity against human PC-3 cells assessed as reduction in cell viability measured after 72 hrs by MTT assay; format: functional, cell-based; conditions: PC-3, 72 h
[1] = Cytotoxicity against mouse RCap cells assessed as reduction in cell viability measured after 72 hrs by MTT assay; format: functional, cell-based
[2] = Cytotoxicity against human WI-38 cells assessed as reduction in cell viability measured after 72 hrs by MTT assay; format: toxicity, cell-based
[3] = Binding affinity to FABP5 (unknown origin); set-up: species or system Homo sapiens

| Compound | IC50 (PC-3) [µM] | IC50 [1] [µM] | IC50 at 72 h [2] [µM] | Ki [3] [µM] |
| --- | --- | --- | --- | --- |
| C#Cc1ccc(-c2ccc(C#N)cc2)cc1OC(=O)[C@H]1[C@@H](c2ccccc2OC)[C@H](C(=O)O)[C@@H]1c1ccccc1OC | 8.89 | 17.4 | > 200 | 1.02 |
| COc1ccccc1[C@H]1[C@H](C(=O)O)[C@H](c2ccccc2OC)[C@@H]1C(=O)Oc1cccc2ccccc12 | 25.5 | – | – | – |
| O=C(O)[C@H]1[C@H](c2ccccc2)[C@H](C(=O)Oc2cccc(-c3ccc4c(c3)OCCO4)c2)[C@H]1c1ccccc1 | 13.1 | 14.5 | 66.5 | 0.66 |
| O=C(O)[C@H]1[C@H](c2ccccc2)[C@@H](C(=O)Oc2cccc(-c3ccc4c(c3)OCCO4)c2)[C@H]1c1ccccc1 | 9.5 | 13.6 | 31.8 | 2.47 |
| COc1ccccc1[C@H]1[C@H](C(=O)O)[C@H](c2ccccc2OC)[C@@H]1C(=O)Oc1cccc(-c2cccc3c2OCO3)c1 | 15.7 | 29 | 49 | 1.26 |
| O=C(O)[C@H]1[C@H](c2ccccc2)[C@H](C(=O)Oc2cc(-c3ccc4c(c3)OCCO4)cc3c2OCCO3)[C@H]1c1ccccc1 | 11.8 | 13.5 | 68.5 | 1.15 |
| COc1ccccc1[C@H]1[C@H](C(=O)O)[C@H](c2ccccc2OC)[C@H]1C(=O)Oc1cc(-c2ccc3c(c2)OCO3)ccc1-c1cncnc1 | 10.6 | 20.5 | 66.4 | 0.64 |
| O=C(O)[C@H]1[C@H](c2ccccc2)[C@@H](C(=O)Oc2cc(-c3ccc4c(c3)OCO4)ccc2-c2ccccc2)[C@H]1c1ccccc1 | 9.76 | 5.53 | 22.4 | 1.17 |
| N#Cc1ccc(-c2ccc3c(c2)OCCO3)cc1OC(=O)[C@H]1[C@@H](c2ccccc2)[C@H](C(=O)O)[C@@H]1c1ccccc1 | 15.1 | – | – | 0.64 |
| COc1ccccc1[C@H]1[C@H](C(=O)O)[C@H](c2ccccc2OC)[C@H]1C(=O)OCCc1ccccc1-c1ccccc1 | 11.9 | 14.2 | 51 | 0.51 |
| N#CCc1ccc(-c2ccc3c(c2)OCO3)cc1OC(=O)[C@H]1[C@@H](c2ccccc2)[C@@H](C(=O)O)[C@@H]1c1ccccc1 | 12.8 | – | 66.3 | 1.42 |
| COc1ccccc1[C@H]1[C@H](C(=O)O)[C@H](c2ccccc2OC)[C@H]1C(=O)Oc1ccccc1-c1ccc2c(c1)OCCO2 | 17.8 | – | – | 2.81 |
| N#CCc1ccc(-c2ccccc2)cc1OC(=O)[C@H]1[C@@H](c2ccccc2)[C@H](C(=O)O)[C@@H]1c1ccccc1 | 9.47 | 22.4 | 47.3 | 0.64 |
| O=C(O)[C@@H]1[C@@H](c2ccccc2)[C@H](C(=O)Oc2cccc3ccccc23)[C@H]1c1ccccc1 | 23.8 | – | – | – |
| O=C(O)[C@H]1[C@H](c2ccccc2)[C@H](C(=O)Oc2cccc(-c3ccc(O)c(O)c3)c2)[C@H]1c1ccccc1 | 52.9 | – | – | 1.25 |
| COc1ccccc1[C@H]1[C@H](C(=O)O)[C@H](c2ccccc2OC)[C@H]1C(=O)Oc1cccc(-c2ccc3c(c2)NC(=O)C3)c1 | 16.2 | – | – | 1.06 |
| N#Cc1ccc(-c2ccccc2OC(=O)[C@H]2[C@@H](c3ccccc3)[C@@H](C(=O)O)[C@@H]2c2ccccc2)cc1 | 20.5 | – | – | 1.39 |
| O=C1Cc2cc(-c3cccc(OC(=O)[C@H]4[C@@H](c5ccccc5)[C@@H](C(=O)O)[C@@H]4c4ccccc4)c3)ccc2N1 | 20 | – | – | 2.21 |
| COc1ccccc1[C@H]1[C@H](C(=O)O)[C@H](c2ccccc2OC)[C@H]1C(=O)Oc1cc(-c2ccc(C#N)cc2)ccc1-c1ccccc1 | 4.82 | 14.5 | > 100 | 0.62 |
| O=C(O)[C@H]1[C@H](c2ccccc2)[C@H](C(=O)Oc2ccccc2-c2ccccc2)[C@H]1c1ccccc1 | 16.2 | – | – | – |
| C#Cc1ccc(-c2ccc3c(c2)OCO3)cc1OC(=O)[C@H]1[C@@H](c2ccccc2OC)[C@@H](C(=O)O)[C@@H]1c1ccccc1OC | 21.8 | – | – | 1.68 |
| COc1ccccc1[C@H]1[C@H](C(=O)O)[C@H](c2ccccc2OC)[C@H]1C(=O)Oc1cccc(-c2ccc3c(c2)OCCO3)c1 | 13 | 12.5 | 54.7 | 1.56 |
| O=C(O)[C@H]1[C@H](c2ccccc2)[C@@H](C(=O)Oc2cc(-c3ccc4c(c3)OCO4)ccc2Br)[C@H]1c1ccccc1 | 7.72 | 9.98 | 25.9 | 0.89 |
| COc1ccccc1[C@H]1[C@H](C(=O)O)[C@H](c2ccccc2OC)[C@H]1C(=O)Oc1ccccc1-c1ccc2c(c1)OCO2 | 19.9 | – | – | 1.59 |
| N#CCc1ccc(-c2ccc3c(c2)OCO3)cc1OC(=O)[C@H]1[C@@H](c2ccccc2)[C@H](C(=O)O)[C@@H]1c1ccccc1 | 13 | – | 46.3 | 0.64 |
| COc1ccccc1[C@H]1[C@H](C(=O)O)[C@H](c2ccccc2OC)[C@H]1C(=O)Oc1cccc(-c2cccc3c2OCO3)c1 | 12.4 | 19.5 | 35.1 | 0.41 |

| Compound | IC50 (PC-3) [µM] | IC50 [1] [µM] | IC50 at 72 h [2] [µM] | Ki [3] [µM] |
| --- | --- | --- | --- | --- |
| O=C(O)[C@H]1[C@H](c2ccccc2)[C@H](C(=O)OCc2cccc3ccccc23)[C@H]1c1ccccc1 | 19.1 | – | – | 2.64 |
| COc1ccccc1[C@H]1[C@H](C(=O)O)[C@H](c2ccccc2OC)[C@H]1C(=O)OC1Cc2ccccc2C1 | 16.5 | – | – | – |
| O=C(O)[C@H]1[C@H](c2ccccc2)[C@H](C(=O)OC2Cc3ccccc3C2)[C@H]1c1ccccc1 | 37.6 | – | – | – |
| COc1ccccc1[C@H]1[C@H](C(=O)O)[C@H](c2ccccc2OC)[C@H]1C(=O)OCC1(F)c2ccccc2-c2ccccc21 | 11.8 | 13 | 55.6 | 1.83 |
| O=C1CCc2cc(-c3cccc(OC(=O)[C@H]4[C@@H](c5ccccc5)[C@H](C(=O)O)[C@@H]4c4ccccc4)c3)ccc2N1 | 11.4 | 12.6 | 42.8 | 0.74 |
| COc1ccccc1[C@H]1[C@H](C(=O)O)[C@H](c2ccccc2OC)[C@H]1C(=O)Oc1cc(-c2ccccc2)ccc1CC#N | 7.31 | 8.31 | 24.4 | 0.81 |
| O=C(O)[C@H]1[C@H](c2ccccc2)[C@@H](C(=O)Oc2cc(-c3ccc4c(c3)OCO4)ccc2-c2cncnc2)[C@H]1c1ccccc1 | 5.88 | 2.92 | 31.5 | – |
| COc1ccccc1[C@H]1[C@H](C(=O)O)[C@H](c2ccccc2OC)[C@H]1C(=O)Oc1cc(-c2ccc(C#N)cc2)ccc1CC#N | 6.39 | 12.4 | 25.4 | 0.77 |
| COc1ccccc1[C@H]1[C@H](C(=O)O)[C@H](c2ccccc2OC)[C@H]1C(=O)Oc1cc(-c2ccc3c(c2)OCO3)ccc1Br | 10.4 | 8.48 | 15.6 | 0.35 |
| COc1ccccc1[C@H]1[C@H](C(=O)O)[C@H](c2ccccc2OC)[C@@H]1C(=O)Oc1ccc(OC)c2ccccc12 | 19.6 | – | – | 26.6 |
| COc1ccccc1[C@H]1[C@H](C(=O)O)[C@H](c2ccccc2OC)[C@H]1C(=O)Oc1cccc(-c2ccc(C#N)cc2)c1 | 8.17 | 19.1 | 26.1 | 1.74 |
| COc1ccccc1[C@H]1[C@H](C(=O)O)[C@H](c2ccccc2OC)[C@H]1C(=O)Oc1cc(-c2ccc(C#N)cc2)ccc1-c1cncnc1 | 14.9 | – | – | 0.38 |
| COc1ccccc1[C@H]1[C@H](C(=O)O)[C@H](c2ccccc2OC)[C@@H]1C(=O)Oc1cccc(-c2ccc(F)cc2)c1 | 14.6 | 19 | 57.5 | 1.77 |
| COc1ccccc1[C@H]1[C@H](C(=O)O)[C@H](c2ccccc2OC)[C@H]1C(=O)Oc1ccccc1-c1ccccc1 | 19.8 | – | – | 1.59 |
| C#Cc1ccc(-c2ccc3c(c2)OCO3)cc1OC(=O)[C@H]1[C@@H](c2ccccc2OC)[C@H](C(=O)O)[C@@H]1c1ccccc1OC | 11.4 | 14.8 | 72.1 | 1.21 |
| O=C(O)[C@H]1[C@H](c2ccccc2)[C@H](C(=O)Oc2cc(-c3ccc4c(c3)OCO4)ccc2-c2cncnc2)[C@H]1c1ccccc1 | 12.5 | 30.2 | 95.5 | – |
| CC(=O)N1CC=C(c2cccc(OC(=O)[C@H]3[C@@H](c4ccccc4)[C@@H](C(=O)O)[C@@H]3c3ccccc3)c2)CC1 | 67.4 | – | – | 28.9 |
| COc1ccccc1[C@H]1[C@H](C(=O)O)[C@H](c2ccccc2OC)[C@H]1C(=O)Oc1cc(-c2ccc3c(c2)OCO3)ccc1-c1cnn(C)c1 | 5.71 | 7.94 | 29.8 | 0.54 |
| COc1ccccc1[C@H]1[C@H](C(=O)O)[C@H](c2ccccc2OC)[C@H]1C(=O)Oc1cc(-c2ccc3c(c2)OCO3)ccc1CC#N | 12.5 | 20.7 | 29.8 | 0.58 |
| COc1ccccc1[C@H]1[C@H](C(=O)O)[C@H](c2ccccc2OC)[C@H]1C(=O)Oc1cccc(-c2ccc(O)c(O)c2)c1 | 40.1 | – | – | 1.25 |
| O=C(O)[C@H]1[C@H](c2ccccc2)[C@@H](C(=O)Oc2cc(-c3ccc4c(c3)OCCO4)cc3c2OCCO3)[C@H]1c1ccccc1 | 20.7 | – | – | 3.5 |
| O=C(O)[C@@H]1[C@@H](c2ccccc2)[C@H](C(=O)OCc2ccccc2-c2ccccc2)[C@H]1c1ccccc1 | 22.1 | – | – | 1.65 |
| O=C1Cc2ccc(-c3ccccc3OC(=O)[C@H]3[C@@H](c4ccccc4)[C@H](C(=O)O)[C@@H]3c3ccccc3)cc2N1 | 63.9 | – | – | 0.29 |
| O=C(O)[C@H]1[C@H](c2ccccc2)[C@H](C(=O)Oc2ccc3cc(-c4cncnc4)ccc3c2)[C@H]1c1ccccc1 | 12.1 | 18.7 | 91.9 | – |
| O=C(O)[C@H]1[C@H](c2ccccc2)[C@H](C(=O)Oc2cccc(C3=CCOCC3)c2)[C@H]1c1ccccc1 | 52 | – | – | 1.75 |
